From patent US20260234630A1, “Methods for Treating Multiple Myeloma” (Celgene Corporation, priority 2022, published 2026)

Key:
Assay type in all cases: cell-based
H929 cells = assay: Gene expression changes by Affymetrix microarray in H929 cells; conditions: POM 1 μM, 24 hour
Method: (§1) FIG. 1A-1F. Down regulation of UHRF1 transcription by IMiDs correlates with drug sensitivity of multiple myeloma. (1A) Volcano plot of protein expression changes determined by mass spectrometry in H929 cells at 24 hr of treatment with CC-220 (0.1 μM) or DMSO control. X axis, Log2fold change (FC); Y axis, significance,-log 10 [p-value]. […] (1B) Volcano plot of gene expression changes determined by Affymetrix microarray in H929 cells treated with POM (1 μM) or DMSO for 24 hr. X axis, Log2fold change (FC); Y axis, significance,-log 10 [p-value], n=2 technical replicates). […] (1C) Western blot analysis protein expression of UHRF1, Ikaros, Aiolos and ZFP91 in H929 cells treated with 1 μM POM for indicated time. (1D) qRT-PCR analysis of UHRF1 gene expression levels in cells as in (1C). Error bars represent the SEM from duplicate measurements. (1E) Western blot analysis protein expression of UHRF1 and indicated proteins in MM cells treated with DMSO (−) or 1 μM POM (+) for 3 days. GAPDH serves as a loading control. (1F) Thymidine incorporation of various MM cell lines treated with indicated dose of POM for 3 days. Error bars represent the SEM from technical replicates.
Given that UHRF1 has been reported to be oncogenic in other cancer types, including MM (Gu et al., 2020, BMC Biol, 18:33), the functions of UHRF1 in MM and the mechanisms underlying its gene regulation in response to immunomodulator drugs that binds to cereblon was explored.

H3 and H3K27ac = assay: Western blot of global histone H3 and H3K27ac levels; conditions: H929 and MM1.S cells, 1 μM POM, 24 hr
Method: FIG. 7A-7B. UHRF1 expression is positively regulated by Ikaros, Aiolos and ZFP91 in MM1.S cells. (7A) Western blot analysis protein expression of UHRF1, Ikaro and Aiolos in stably transduced MM1.S cells after Dox induction (0, 20, or 50 ng/ml) for 3 days of non-target shRNA (shNT) or shRNAs targeting Ikaros (shIKZF1) or Aiolos (shIKZF3). (7B) Western blot analysis histone H3 and H3K27ac levels from H929 and MM1.S cells treated with DMSO or 1 μM POM for 24 hr.
Cells were lysed with cell lysis buffer (50 mM TrisHCl pH7.4, 250 mM NaCl, 0.5% Triton X100, 10% glycerol) supplemented with protease inhibitor cocktail. Cell lysates were subjected to sonication to breakdown nuclei and reduce viscosity caused by released genomic DNA. The protein concentration was measured by a Bradford Protein Assay (Bio-Rad). Samples were mixed with SDS sample buffer at 95° C. for 5 minutes. Whole cell lysates were resolved on NuPAGE™ 4-12% Bis-Tris Midi Protein Gels (Invitrogen) and transferred onto nitrocellulose membranes, which were then subjected to blocking in Intercept (TBS) Blocking Buffer (LI-COR). Proteins of interested were detected incubation with primary antibodies listed below at 4° C. overnight. Then the membrane was incubated with either IRDye 680RD goat anti-Mouse IgG (H+L) or IRDye 800CW goat anti-Rabbit IgG (H+L) (1:10,000; LI-COR). Bends were visualized by Odyssey Imaging System (LI-COR).

UHRF1 = assay: Immunocytochemistry assay of UHRF1 in H929 cells; conditions: 48 hours after 1 μM POM
Method: FIG. 6A-6D. […] (6A) Immunocytochemistry assay of UHRF1 in H929 cells treated with DMSO or 1 μM POM for 48 hrs. (6B) qRT-PCR analysis of UHRF1 gene expression levels in indicated MM cells treated with indicated doses of POM for 3 days. Data was normalized to ACTB. Error bars represent the SEM from duplicate measurements. * P<0.05, ** P<0.01, *** P<0.001, **** P<0.0001 (Two-tailed Student's t-test). (6C) Western blot analysis protein expression of UHRF1, Ikaros, Aiolos, ZFP91 and Celebron in H929 cells treated with 1 μM POM or 0.1 μM CC-220 for 3 days. DMSO, vehicle control. (6D) Western blot analysis protein expression of UHRF1, Ikaros, Aiolos, ZFP91 and Celebron in H929 or RPMI 8226 cells treated with 1 μM POM, 0.1 μM CC-220 or 0.01 μM CC-480 for 3 days. DMSO, vehicle control.

IRF4 and c-Myc = assay: Western blot of IRF4 and c-Myc in MM cells; conditions: MM1.S, DF15 and U266 cells; 1 μM POM, 3 days
Method: as §1, with “(1F) Thymidine incorporation of various MM cell lines treated with indicated dose of POM for 3 days. Error bars represent the SEM from technical replicates.” left out
Cells were lysed with cell lysis buffer (50 mM TrisHCl pH7.4, 250 mM NaCl, 0.5% Triton X100, 10% glycerol) supplemented with protease inhibitor cocktail. […] The protein concentration was measured by a Bradford Protein Assay (Bio-Rad). […] Proteins of interested were detected incubation with primary antibodies listed below at 4° C. overnight. […]

[1] = system: multiple myeloma (MM) cells; assay: (3H)-thymidine incorporation assay of MM cell lines; conditions: POM 3 days
Method: as §1
(3H)-thymidine incorporation assay was performed as previously described (PMID: 23252516) with minor modifications. Briefly, 1×10^4 or 2×10^5 multiple myeloma (MM) cells were cultured in 96-well culture plates in complete media with the indicated concentration of pomalidomide (POM) or DMSO control for 3 days. 37 kBg (3H)-thymidine was added to each will at the final 6 hour of incubation.

Q: With `Nc1cccc2c1C(=O)N(C1CCC(=O)NC1=O)C2=O` (stereo not shown) [POM, pomalidomide] as the compound, how does the “UHRF1 gene expression (microarray)” value (H929 cells) read?
A: one of the most significantly downregulated genes

Q: And the “expression of interferon response genes IFIT1 and IFIT3” value (H929 cells)?
A: drastic induction

Q: And the “gene expression of cell cycle regulators E2F1, MYB and CDC45” value (H929 cells)?
A: most significantly downregulated genes

Q: And the “global levels of H3 and H3K27ac” value (H3 and H3K27ac)?
A: not affected

Q: And the “UHRF1 protein by immunocytochemistry” value (UHRF1)?
A: nearly undetectable

Q: What about the “IRF4 and c-Myc expression” value (IRF4 and c-Myc) of the same compound?
A: downregulated

Q: And the “drug sensitivity of cell lines” value ([1]; H929, MM1.S, DF15 and U266)?
A: sensitive

Q: What about the “drug sensitivity of cell lines” value ([1]; H929 PR and DF15 PR (diminished cereblon expression)) of the same compound?
A: acquired resistance

Q: And the “drug sensitivity of cell line” value ([1]; MC/CAR)?
A: less sensitive

Q: What about the “drug sensitivity of cell line” value ([1]; RPMI 8226) of the same compound?
A: intrinsically resistant
